Assay results as given in patent US11707454B2, “Topical roflumilast formulation having antifungal properties” (ARCUTIS BIOTHERAPEUTICS, INC., priority 2020, dated 2023).
Read-outs that look alike come from different tables or passages of the source.

Key:
Format in all cases: cell-based
[1] = system: C. parapsilosis (ATCC 22019); assay: in vitro micro-dilution susceptibility assay (method of Rojas); conditions: Lodderomyces parapsilosis, C. parapsilosis (22019), read-out: minimum inhibition concentration (MIC)
Method: (§1) The in vitro susceptibility of Malassezia species to roflumilast was determined utilizing three Candida species as internal control isolates for all testing. These three isolates were C. albicans American Type Culture Collection (ATCC) 90028, C. krusei (ATCC 6258) and C. parapsilosis (ATCC 22019). In addition to testing roflumilast all susceptibility assays were conducted using ketoconazole and hydrocortisone as positive and negative control compounds, respectively. All assays were placed within a humidified incubator set to 32° C. for a total of seven days. Each assay was evaluated after 12 hours of incubation and, every 24 hours post incubation for a total of seven days. The assays were evaluated for visual growth of each pathogen in the no treatment control as well as determination of minimum inhibition concentration (MIC) values. The concentration that provides a 3-log10 CFU/mL reduction in fungal burden from baseline at day 0 was defined as the minimum fungicidal concentration (MHC) and was determined by quantifying fungal burdens found in the microplate at day seven.
(§2) The method of Rojas (Rojas F D, et al. Antifungal susceptibility of Malassezia furfur, Malassezia sympodialis, and Malassezia globose to azole drugs and amphotericin B evaluated using a broth microdilution method. 2014. Medical Mycology. 52:641-646) was used in which the liquid broth medium was RPMI 1640 with added 1.8% glucose, 1% peptone, 0.5% ox-bile, 0.5% malt extract, 1% glycerol, 0.5% Tween 40 and 0.05% Tween 80. Round bottom 96 well microplates were used. The inoculums were prepared in sterile saline and diluted to a final targeted concentration of 0.5×10^5 to 2.5×10^5 CFU/mL in supplemented RPMI. […] For the internal control isolate C. parapsilosis (ATCC 22019) the expected CLSI values for ketoconazole of 0.03-0.25 (at 24 hours) and 0.06-0.5 (at 48 hours) did agree with the 2-day value (Table A) of 0.5.

[2] = system: M. furfur (ATCC 12078); assay: as above; conditions: for MIC: Malassezia furfur, read-out: minimum inhibition concentration (MIC)
Method: as §1, §2

[3] = system: M. furfur (ATCC 44344); assay: as above; conditions: for MIC: Malassezia furfur, read-out: minimum inhibition concentration (MIC)
Method: as §1, §2

[4] = system: C. krusei (ATCC 6258); assay: as above; conditions: Pichia kudriavzevii, read-out: minimum inhibition concentration (MIC)
Method: as §1, §2

[5] = system: M. furfur (ATCC 14521); assay: as above; conditions: for MIC: Malassezia furfur, read-out: minimum inhibition concentration (MIC)
Method: as §1, §2

[6] = system: M. globose (ATCC MYA-4889); assay: as above; conditions: for MIC: read-out: minimum inhibition concentration (MIC)
Method: as §1, §2

[7] = system: M. restricta (ATCC MYA-4611); assay: as above; conditions: for MIC: read-out: minimum inhibition concentration (MIC)
Method: as §1, §2

[8] = system: C. albicans (ATCC 90028); assay: as above; conditions: Candida albicans, read-out: minimum inhibition concentration (MIC)
Method: as §1, §2

[9] = system: Malassezia species and Candida species; assay: in vitro micro-dilution susceptibility assay, summary over all isolates; conditions: negative control
Method: as §1, with “seven. […]” for “seven.”

MIC ([1]; ATCC22019, 12 h, Time 0.5 days): > 1020 µg/mL
MIC ([1]; ATCC22019, 24 h, Time 1 days): > 1020 µg/mL
MIC ([1]; ATCC22019, 48 h, Time 2 days): > 1020 µg/mL
MIC ([1]; ATCC22019, 72 h, Time 3 days): > 1020 µg/mL
MIC ([1]; ATCC22019, 96 h, Time 4 days): > 1020 µg/mL
MIC ([1]; ATCC22019, 120 h, Time 5 days): > 1020 µg/mL
MIC ([1]; ATCC22019, 144 h, Time 6 days): > 1020 µg/mL
MIC ([1]; ATCC22019, 168 h, Time 7 days): > 1020 µg/mL
MIC ([2]; ATCC12078, 48 h, Time 2 days): > 1020 µg/mL
MIC ([2]; ATCC12078, 72 h, Time 3 days): > 1020 µg/mL
MIC ([2]; ATCC12078, 96 h, Time 4 days): > 1020 µg/mL
MIC ([2]; ATCC12078, 120 h, Time 5 days): > 1020 µg/mL
MIC ([2]; ATCC12078, 144 h, Time 6 days): > 1020 µg/mL
MIC ([2]; ATCC12078, 168 h, Time 7 days): > 1020 µg/mL
minimum inhibition concentration (MIC) ([2]; Time 0.5 days): NGO
minimum inhibition concentration (MIC) ([2]; Time 1 days): NGO
MIC ([3]; ATCC44344, 48 h, Time 2 days): > 1020 µg/mL
MIC ([3]; ATCC44344, 72 h, Time 3 days): > 1020 µg/mL
MIC ([3]; ATCC44344, 96 h, Time 4 days): > 1020 µg/mL
MIC ([3]; ATCC44344, 120 h, Time 5 days): > 1020 µg/mL
MIC ([3]; ATCC44344, 144 h, Time 6 days): > 1020 µg/mL
MIC ([3]; ATCC44344, 168 h, Time 7 days): > 1020 µg/mL
minimum inhibition concentration (MIC) ([3]; Time 0.5 days): NGO
minimum inhibition concentration (MIC) ([3]; Time 1 days): NGO
MIC ([4]; ATCC6258, 12 h, Time 0.5 days): > 1020 µg/mL
MIC ([4]; ATCC6258, 24 h, Time 1 days): > 1020 µg/mL
MIC ([4]; ATCC6258, 48 h, Time 2 days): > 1020 µg/mL
MIC ([4]; ATCC6258, 72 h, Time 3 days): > 1020 µg/mL
MIC ([4]; ATCC6258, 96 h, Time 4 days): > 1020 µg/mL
MIC ([4]; ATCC6258, 120 h, Time 5 days): > 1020 µg/mL
MIC ([4]; ATCC6258, 144 h, Time 6 days): > 1020 µg/mL
MIC ([4]; ATCC6258, 168 h, Time 7 days): > 1020 µg/mL
MIC ([5]; ATCC14521, 48 h, Time 2 days): > 1020 µg/mL
MIC ([5]; ATCC14521, 72 h, Time 3 days): > 1020 µg/mL
MIC ([5]; ATCC14521, 96 h, Time 4 days): > 1020 µg/mL
MIC ([5]; ATCC14521, 120 h, Time 5 days): > 1020 µg/mL
MIC ([5]; ATCC14521, 144 h, Time 6 days): > 1020 µg/mL
MIC ([5]; ATCC14521, 168 h, Time 7 days): > 1020 µg/mL
minimum inhibition concentration (MIC) ([5]; Time 0.5 days): NGO
minimum inhibition concentration (MIC) ([5]; Time 1 days): NGO
MIC ([6]; 120 h, Time 5 days): > 1020 µg/mL
MIC ([6]; 144 h, Time 6 days): > 1020 µg/mL
MIC ([6]; 168 h, Time 7 days): > 1020 µg/mL
minimum inhibition concentration (MIC) ([6]; Time 0.5 days): NGO
minimum inhibition concentration (MIC) ([6]; Time 1 days): NGO
minimum inhibition concentration (MIC) ([6]; Time 2 days): NGO
minimum inhibition concentration (MIC) ([6]; Time 3 days): NGO
minimum inhibition concentration (MIC) ([6]; Time 4 days): NGO
MIC ([7]; 120 h, Time 5 days): > 1020 µg/mL
MIC ([7]; 144 h, Time 6 days): > 1020 µg/mL
MIC ([7]; 168 h, Time 7 days): > 1020 µg/mL
minimum inhibition concentration (MIC) ([7]; Time 0.5 days): NGO
minimum inhibition concentration (MIC) ([7]; Time 1 days): NGO
minimum inhibition concentration (MIC) ([7]; Time 2 days): NGO
minimum inhibition concentration (MIC) ([7]; Time 3 days): NGO
minimum inhibition concentration (MIC) ([7]; Time 4 days): NGO
MIC ([8]; ATCC90028, 12 h, Time 0.5 days): > 1020 µg/mL
MIC ([8]; ATCC90028, 24 h, Time 1 days): > 1020 µg/mL
MIC ([8]; ATCC90028, 48 h, Time 2 days): > 1020 µg/mL
MIC ([8]; ATCC90028, 72 h, Time 3 days): > 1020 µg/mL
MIC ([8]; ATCC90028, 96 h, Time 4 days): > 1020 µg/mL
MIC ([8]; ATCC90028, 120 h, Time 5 days): > 1020 µg/mL
MIC ([8]; ATCC90028, 144 h, Time 6 days): > 1020 µg/mL
MIC ([8]; ATCC90028, 168 h, Time 7 days): > 1020 µg/mL
SMILES: C[C@]12CCC(=O)C=C1CC[C@@H]1[C@@H]2[C@@H](O)C[C@@]2(C)[C@H]1CC[C@]2(O)C(=O)CO [Hydrocortisone]
anti-fungal activity (all isolates) [9]: no anti-fungal activity
